Where “and” joins values, the source holds several entries; their conditions need not be identical. Identical values can stand only once. Like-named read-outs stand apart in the source and are kept apart here.
Key:
[1] = system: Chang Liver (normal liver); experiment: Cytotoxicity on normal liver Chang Liver; format: cell-based; conditions: 48 h
Experimental: (§1) Table 2 Selective index of compounds tested for anti-Leishmania activity | column: IC50 (μM), 48 h / ML-2-2; IC50 (μM), 48 h / ML-2-3; IC50 (μM), 48 h / ML-F52; SI / ML-2-2; SI / ML-2-3; SI / ML-F52

[2] = system: Leishmania hertigi promastigotes; experiment: In vitro viacount assay (Guava viacount, FACS) on L. hertigi promastigotes; format: cell-based
Experimental: (§2) The field strain of L. enriettii (010) promastigotes, which had been isolated in Ghana, and the lab strain, Leishmania hertigi promastigotes, were used in this study because of their availability. Parasites were cultured in vitro according to conditions established previously. Log phase of parasites (1 × 10^6 parasites/ml) was diluted to a parasitemia of 3 × 10^5 parasites/ml with M199 medium and used for the drug assay. Estimation of parasitemia was done with the Neubauer’s counting chamber.
Leishmania promastigote forms of L. hertigi parasites were seeded and incubated in the presence or absence of (50–0.78 μM) compounds (dissolved in DMSO) for 48 h, after which the Guava reagent for viacount (Millipore) was added to the culture in the ratio of 1:1 and incubated for 30 min. Analysis was performed using the Millipore guava easyCyte 5HT (USA) according to the manufacture’s instruction.
(§3) The aim of the study was to investigate the anti-Leishmania properties of the three novel tetracyclic iridoid compounds previously found to have anti-trypanosome activity. In the determination of the effect of Molucidin, ML-2-3, and ML-F52 on L. hertigi and 010, parasites were challenged with 0–50 μM of each compound for 48 and 96 h to determine MIC and the concentration of compounds that inhibited parasite growth by 50 % (IC50) by microscopy and fluorescence-activated cell sorting (FACS) analysis, respectively. […] All three compounds share same side chains, iridoid tetracyclic skeleton, but differ in their functional group region. Molucidin and ML-F52 are esters while ML-2-3 is carboxylic acid. The functional groups may play a key role in the activity of the compounds against Leishmania.

[3] = system: NBIRGB (normal skin fibroblasts); experiment: Cytotoxicity on normal skin fibroblasts NBIRGB; format: cell-based; conditions: 48 h
Experimental: as §1

L. hertigi parasites = experiment: Fluor-microscopy analysis using DAPI (nucleus/kinetoplast count, morphology); format: cell-based, Leishmania hertigi; conditions: 4 μM, 48 h, DAPI staining
Experimental: Parasites were incubated for 24 h under appropriate conditions (25 °C) with appropriate concentrations of active compounds, Molucidin and ML-F52. Parasites were then harvested and fixed with 4 % paraformaldehyde at room temperature for 5 min. Washing steps were carried out with PBS and PBST (0.1 % Triton X 100 in PBS) at room temperature for 5 min and 15 min, respectively. The parasites were stained with 4’,6-diamidino-2’-phenylindole dihydrochloride (DAPI) (5 μg/ml DAPI in PBS) for 10 min. After washing steps as above, the slides were mounted using parmafluor mounting reagent and covered with cover slips. The slides were observed under the Olympus fluorescent microscope (Olympus BX53) to detect any phenotypic changes in L. hertigi parasites.
To investigate the effect of Molucidin and ML-F52 on the morphology and cell division of L. hertigi, we performed fluor-microscope observation with DAPI staining after incubation of parasite with 4 μM of Molucidin and ML-F52 for 48 h. […] The inhibition of cytokinesis might imply the inability of cells to replicate in the mammalian host and increase the parasite burden. This may prevent the parasites from over running the host-immune and may give the host the edge to clear the infection. […]

[4] = system: Leishmania 010 (field strain of L. enriettii) promastigotes; experiment: MIC by microscopy on Leishmania field strain 010 promastigotes; format: cell-based, L. enriettii (010)
Experimental: as §2
Promastigotes of Leishmania 010 were seeded and incubated in the presence or absence of (50–0.78 μM) compounds for 96 h and the minimum inhibitory concentration (MIC) of the compounds determined by microscopy.
as §3, with “Molucidin and ML-F52 are esters while ML-2-3 is carboxylic acid. The functional groups may play a key role in the activity of the compounds against Leishmania.” left out

Hs-888Lu (normal lung) = experiment: Cytotoxicity on normal lung Hs-888Lu; format: cell-based; conditions: 48 h
Experimental: as §1

[5] = system: HF-19 (normal lung fibroblasts); experiment: Cytotoxicity on normal lung fibroblasts HF-19; format: cell-based; conditions: 48 h
Experimental: as §1

| SMILES | IC50 [1] [µM] | anti-Leishmania activity ([2]; L. hertigi, 0–50 μM, 48 h) | IC50 ([2]; promastigotes, 48 h, 50–0.78 μM, Guava viacount FACS, read-out: IC50 after 48 h (L. hertigi)) [µM] | IC50 [3] [µM] | effect on parasite morphology (L. hertigi parasites) | 2N/2K cells (two sets of nucleus and kinetoplast) (L. hertigi parasites; microscopic counting, DMSO-treated cells 10 % 2N/2K) | anti-Leishmania activity ([4]; 010 field strain, 0–50 μM, 96 h) | MIC after 96 h (010) ([4]; promastigotes, 50–0.78 μM, microscopy) | IC50 (Hs-888Lu (normal lung)) [µM] | IC50 [5] [µM] | IC50 ([2]; Leishmania hertigi, positive control, strain not stated in footnote, read-out: IC50 of amphotericin B (positive control)) [µg/mL] |
| --- | --- | --- | --- | --- | --- | --- | --- | --- | --- | --- | --- |
| COC(=O)C1=CO[C@@H]2O[C@H]3/C(=C\c4ccc(O)c(OC)c4)C(=O)O[C@]34C=C[C@H]1[C@H]24 [Molucidin] | 9.34 | had anti-Leishmania activity | 4.24 | 7.11 | induced short stumpy form parasite cells | 30–40% | had anti-Leishmania activity | 4.167 µM and 4.17 µM | 9.29 | 14.2 |  |
| C[C@@H]1[C@H](O)[C@@H](C)/C=C/C=C/C=C/C=C/C=C/C=C/C=C/[C@H](O[C@@H]2O[C@H](C)[C@@H](O)[C@H](N)[C@@H]2O)C[C@@H]2O[C@](O)(C[C@@H](O)C[C@@H](O)[C@H](O)CC[C@@H](O)C[C@@H](O)CC(=O)O[C@H]1C)C[C@H](O)[C@H]2C(=O)O [amphotericin B, reference compound] |  |  |  |  |  |  |  |  |  |  | 0.1 |
